# According to PMC5122887, “Identification of ER-000444793, a Cyclophilin D-independent inhibitor of mitochondrial permeability transition, using a high-throughput screen in cryopreserved mitochondria” (Scientific Reports, 2016):
# pIC50: −log10 of the molar value.
# Target: T1, Cyclophilin D (CypD; rhCypD) (Homo sapiens, UniProt P30405)
# T1 construct: gene PPIF; amino acids 44 to 207 of full length human CypD, C-terminal His-tag
# Experiment: HTRF/TR-FRET displacement of CsA-d2 from His-tagged rhCypD; also inhibits PPIase activity (IC50 […])
# Assay type: binding
# T1 sequence (P30405 44-207): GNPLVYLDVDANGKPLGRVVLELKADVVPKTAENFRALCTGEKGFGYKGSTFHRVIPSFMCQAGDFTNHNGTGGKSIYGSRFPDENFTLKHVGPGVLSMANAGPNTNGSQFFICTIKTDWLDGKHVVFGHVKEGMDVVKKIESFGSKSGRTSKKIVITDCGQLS
smiles,measurement,value
"CC[C@H]1C[C@H](C)[C@@]2(NC1=O)O[C@@H](C[C@H](O)[C@@H](C)CC/C=C/C=C(\C)[C@@H]1C/C=C/C=C/[C@H](O)[C@H](C)[C@@H](O)[C@@H](CCC(C)=O)C(=O)N[C@@H](C(C)C)C(=O)N[C@@H](Cc3cccc(O)c3)C(=O)N3CCC[C@H](N3)C(=O)O1)[C@H](C)[C@H](O)[C@@H]2C [SfA, sanglifehrin A]",pIC50,8.30
